The source of these data is PMC9858543, “Design, synthesis and evaluation of 2, 6, 8-substituted Imidazopyridine derivatives as potent PI3Kα inhibitors” (Journal of Enzyme Inhibition and Medicinal Chemistry, 2023).

Like-named read-outs stand apart in the source and are kept apart here. Where only a bound is given, the exact number is not on record here.

One data set has as its system T47D. Put plainly: Cell proliferation assay (CellTiter-Glo), T47D. It counts as cell-based. The following applies: Homo sapiens, 72 h exposure, mean ± SD of two experiments. Here is the method: (§1) Given the desirable enzyme activity profile, these compounds were further assayed for their antiproliferative activities against five independent human tumour cell line collections harbouring PIK3CA mutation, including human ovarian cancer cell line SKOV-3, human breast cancer T47D and MCF-7, human lung cancer H1975 and H460. […] In general, the cellular activity of tested derivatives corrected with their effects on kinase activity.
(§2) All target compounds were evaluated for antiproliferative potency against SKOV-3, T47D,NCI-H1975, NCI-H460,and MCF-7 tumour cell lines using a CellTiter-Glo® Luminescent Cell Viability Assay. The human tumour cell lines used were obtained from the ATCC or Shanghai ZhongQiaoXinZhou Biotech. All the mediums and FBS were Gibco. T47D, H1975 and NCI-H460 tumour cells were cultured in RPMI1640 medium supplemented with 10% FBS. SKOV-3 was cultured in McCoy’s 5 A medium supplemented with 10%FBS. The day before treatment with compounds, cells were seeded at a density of 2000 or 5000 in each well of a 96-well plate. The tumour cells were then treated with 3-fold serial diluted compound or DMSO control in the incubator at 37 °C and 5% CO2 for 3 days, prior to the addition of CellTiter-Glo reagents (Promega) and reading of luminescence using a PerkinElmer Envision plate reader. Data were analysed using GraphPad Prism 7.0.
A general note: Cellular ATP, detected with luciferase, serves as a proxy for viable cell number.

The test system of another data set is NCI-H1975. The data set can be described thus: Cell proliferation assay (CellTiter-Glo), NCI-H1975. The settings on record: Homo sapiens, 72 h exposure, mean ± SD of two experiments. It counts as cell-based. Here is the method:
as §1, §2

A further data set concerns MCF-7. Put plainly: Cell proliferation assay (CellTiter-Glo), MCF-7. It counts as cell-based. The following applies: Homo sapiens, MCF7; 72 h exposure; mean ± SD of two experiments. Here is the method:
as §1, §2

For the next data set, the system named is NCI-H460. The data set can be described thus: Cell proliferation assay (CellTiter-Glo), NCI-H460. The settings on record: Homo sapiens, 72 h exposure, mean ± SD of two experiments. The format is cell-based. Here is the method: as §1, §2
In the next data set the test system is SKOV-3. Put plainly: Cell proliferation assay (CellTiter-Glo), SKOV-3. The settings on record: Homo sapiens, SK-OV-3; 72 h exposure; mean ± SD of two experiments. The format is cell-based. The protocol: as §1, §2
The next data set concerns T47D cells. Put plainly: Apoptosis analysis, annexin V/7-AAD flow cytometry. The format is cell-based, human. The settings on record: 50 μM, 24 h. The protocol: Considering compound 35 was most sensitive in T47D cells, we decided to get some mechanistic insight into the mode of action in T47D cell line. As such, the annexin V/7-AAD staining and cell cycle phase distribution have been carried out. […] Furthermore, T47D cells were also treated with different concentrations of 35, and the percentage of apoptotic cells was measured.
For cell cycle analysis, T47D cell (1 × 10^6) were seeded in 6-well plates overnight and treated with different concentrations of compound 35 and DMSO control on the next day. After 24 h, the cells were collected by EDTA-free trypsinization, centrifuged at 1500 rpm for 5 min, and fixed in 75% ethanol at −20 °C for 1 h. The cells were then centrifuged at 2000 rpm for 5 min, resuspended in 500 µL PI/Rnase Staining Buffer, incubated for 30 min at room temperature, and analysed using flow cytometry. The data were analysed using Modfit software. For cell apoptosis analysis, T47D cell were seeded in 6 well-plates and treated with DMSO or compound 35 for 24 h. The treated cells were collected and washed with cold PBS for three times, resuspended in 185 µL binding buffer containing 5 μL Annexin V-FITC Apoptosis Detection Kit and 10 μL 7-AAD Viability Staining Solution for 15 min at room temperature in the dark. Apoptotic cells were analysed by flow cytometer.
A general note: A flow cytometer gives signals particle by particle.

Data set [1] can be described thus: Parallel artificial membrane permeability assay (Egg-PAMPA). The format is in vitro ADME. The following applies: incubation 4 h; for Papp at 4 h, 10 μM: PAMPA. Here is the method:
10.0 μM donor solution (5% DMSO) was prepared by diluting of working solution with PBS. The donor solution was added to each well of the donor plate, whose PVDF membrane was precoated with 5 µL of 1% lecithin/dodecane mixture. Duplicates were prepared.Then, PBS was added to each well of the PTFE acceptor plate. The donor plate and acceptor plate were combined and incubated for 4 h at room temperature with shaking at 300 rpm. Acceptor samples and donor samples were prepared and analysed by LC-MS/MS.
On the technique in general: PAMPA measures passive passage across an artificial lipid membrane.

Data set [2] is described as follows: Liver microsomal stability assay, HLM. It counts as in vitro ADME, human. Here is the method:
The metabolic stability of compound 35 was determined in human or SD rat liver microsomes, with and without the NADPH regenerating system. Briefly, compound 35 was incubated with microsomes (human microsome, CORNING, lot No. 38296; rat microsome, Xenotech, Lot No. 2110178) (0.5 mg protein/mL) at 1 μM at 37 °C in potassium phosphate buffer (100 mM at pH 7.4 with 10 mM MgCl2). The reactions were initiated by adding prewarmed cofactors (1 mmol NADPH). After incubation for different times (0, 5, 10, 20, 30, and 60 min) at 37 °C, cold acetonitrile containing 200 ng/mL tolbutamide and 200 ng/mL labetalol as internal standards was added to precipitate the protein. Then, the samples were centrifuged, and the supernatants were transferred into HPLC water, mixed by plate shaker for 10 min prior to LC − MS/MS analysis.

The term IC50 denotes the concentration that gives 50% inhibition. A lower IC50 goes with inhibition by little substance. For `COc1ncc(-c2cc(C)cn3cc(C(=O)N4CCCC4)nc23)cc1NS(=O)(=O)c1ccc(F)cc1` [Compound 35, 4-Fluoro-N-(2-methoxy-5–(6-methyl-2-(pyrrolidine-1-carbonyl)Imidazo[1,2-a]pyridin-8-yl)pyridin-3-yl)benzenesulfonamide], the IC50 turned out to be 7.9 ± 0.8 µM with T47D; 32.1 ± 2.4 µM with NCI-H1975; 9.4 ± 0.6 µM in the data set on MCF-7; 17.7 ± 2 µM in the data set on NCI-H460; 26.6 ± 1.3 µM with SKOV-3. Moreover, the “Q2 cells (late apoptosis), annexin V/7-AAD” value with T47D cells was found to be 21.8%. Also, the “Q3 cells (early apoptosis), annexin V/7-AAD” value with T47D cells was 1.51%. Further, the “Mean Pe” value in data set [1] (10 μM) is listed as “higher than 10 nm/s”. Further, the values for the Papp at 4 h, 10 μM in data set [1] (read-out: Mean Pe) and in data set [1] (read-out: Permeability) were 1.54 ×10⁻⁶ cm/s and greater than 1 ×10⁻⁶ cm/s, respectively. The “Remaining (T = 60min)” value in data set [2] (1 μM, 60 min) came to 42.7%. Also, in data set [2] (human, human liver microsomes, pH 7.4, 0.5 mg protein/mL, read-out: Metabolic stability CL int), the microsomal CLint at 1 μM was 30.7 µL/min/mg. The half-life at 1 μM in data set [2] (human, human liver microsomes, pH 7.4, 0.5 mg protein/mL, read-out: Metabolic stability T1/2) stood at 45.1 min.
